Target: Cdk9/cyclinT1 (Homo sapiens (Human), UniProt P50750)
Assay: Cdk9/CyclinT1 IMAP Protocol (fluorescence polarization kinase assay)
Assay type: biochemical
Settings: Table 2; generated using one of the two Cdk9/cyclinT1 assays (IMAP or Alpha Screen), not specified which; unit inferred
Protocol: Cdk9/CyclinT1 IMAP Protocol
The biological activity of the compounds of the invention can be determined using the assay described below.
Cdk9/cyclinT1 is purchased from Millipore, cat #14-685. The final total protein concentration in the assay 4 nM. […] The final concentration of peptide substrate is 100 nM. The ATP substrate (Adenosine-5′-triphosphate) is purchased from Roche Diagnostics, cat#1140965. The final concentration of ATP substrate is 6 uM. IMAP (Immobilized Metal Assay for Phosphochemicals) Progressive Binding reagent is purchased from Molecular Devices, cat#R8139. Fluorescence polarization (FP) is used for detection. The 5TAMRA-cdk7tide peptide is phosphorylated by Cdk9/cyclinT1 kinase using the ATP substrate. The Phospho-5TAMRA-cdk7tide peptide substrate is bound to the IMAP Progressive Binding Reagent. The binding of the IMAP Progressive Binding Reagent changes the fluorescence polarization of the 5TAMRA-cdk7tide peptide which is measured at an excitation of 531 nm and FP emission of 595 nm. Assays are carried out in 100 mM Tris, pH=7.2, mM MgCl2, 0.05% NaN3, 0.01% Tween-20, 1 mM dithiothreitol and 2.5% dimethyl sulfoxide. IMAP Progressive Binding Reagent is diluted 1:800 in 100% 1× Solution A from Molecular Devices, cat#R7285.
General protocol is as follows: To 10 ul of cdk9/cyclinT1, 0.5 ul of test compound in dimethyl sulfoxide is added. 5TAMRA-cdk7tide and ATP are mixed. 10 ul of the 5TAMRA-cdk7tide/ATP mix is added to start the reaction. The reaction is allowed to proceed for 4.5 hrs. 60 uL of IMAP Progressive Binding Reagent is added. After >1 hr of incubation, plates are read on the Envision 2101 from Perkin-Elmer. The assay is run in a 384-well format using black Corning plates, cat#3573.

Cdk9/cyclinT1, sequence (P50750 whole entry): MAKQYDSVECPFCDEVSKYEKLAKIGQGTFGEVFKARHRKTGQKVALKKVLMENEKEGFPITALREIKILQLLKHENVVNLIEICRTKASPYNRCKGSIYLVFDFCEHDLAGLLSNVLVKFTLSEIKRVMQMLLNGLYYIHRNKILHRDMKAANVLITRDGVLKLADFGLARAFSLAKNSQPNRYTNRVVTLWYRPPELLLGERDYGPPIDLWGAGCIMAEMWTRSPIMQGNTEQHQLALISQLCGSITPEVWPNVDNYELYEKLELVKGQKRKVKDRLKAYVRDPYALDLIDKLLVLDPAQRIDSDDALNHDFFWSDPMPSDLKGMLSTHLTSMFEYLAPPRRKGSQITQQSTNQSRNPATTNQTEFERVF
Cdk9/cyclinT1, sequence (O60563 whole entry partner): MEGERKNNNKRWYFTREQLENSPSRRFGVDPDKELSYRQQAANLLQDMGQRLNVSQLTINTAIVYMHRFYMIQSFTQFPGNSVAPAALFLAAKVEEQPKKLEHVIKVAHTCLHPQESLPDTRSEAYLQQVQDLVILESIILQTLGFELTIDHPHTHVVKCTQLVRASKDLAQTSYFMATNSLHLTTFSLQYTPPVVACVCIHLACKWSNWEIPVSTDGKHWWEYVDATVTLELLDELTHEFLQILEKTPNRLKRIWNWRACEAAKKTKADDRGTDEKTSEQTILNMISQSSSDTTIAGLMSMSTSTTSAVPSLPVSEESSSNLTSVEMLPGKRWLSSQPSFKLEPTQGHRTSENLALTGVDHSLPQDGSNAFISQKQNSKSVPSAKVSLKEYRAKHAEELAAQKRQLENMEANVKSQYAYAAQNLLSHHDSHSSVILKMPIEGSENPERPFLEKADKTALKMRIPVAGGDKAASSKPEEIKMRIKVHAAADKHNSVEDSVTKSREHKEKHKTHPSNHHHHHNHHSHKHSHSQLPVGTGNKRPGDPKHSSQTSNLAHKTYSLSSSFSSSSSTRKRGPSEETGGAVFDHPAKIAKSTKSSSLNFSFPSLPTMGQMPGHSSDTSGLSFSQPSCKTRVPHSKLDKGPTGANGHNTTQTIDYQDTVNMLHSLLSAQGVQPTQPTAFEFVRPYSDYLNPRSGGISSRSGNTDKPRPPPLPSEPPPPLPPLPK

Compound | IC50 [nM]
N[C@H]1CC[C@H](Nc2cc(-c3cncc(NC[C@@H]4CCCOC4)n3)c(Cl)cn2)CC1 [Compound 262] | 7.94
CC1(C)C[C@@H](CNc2cccc(-c3cc(N[C@H]4CC[C@H](N)CC4)ncc3Cl)n2)CCO1 (single isomer, unassigned) [Compound 257] | 7.94
Clc1cnc(N[C@H]2CC[C@H](NC[C@@H]3CCCO3)CC2)cc1-c1cccc(NCC2CCOCC2)n1 [Compound 278] | 7.94
3,5′-dichloro-N6-((tetrahydro-2H-pyran-4-yl)methyl)-N2′-(trans-4-(((R)-tetrahydrofuran-2-yl)methyl)aminocyclohexyl)-2,4′-bipyridine-2′,6-diamine [Compound 268] | 8.14
CC(=O)N1CCC[C@H](CNc2cccc(-c3cc(N[C@H]4CC[C@H](N)CC4)ncc3Cl)n2)C1 [Compound 215, 1-((R)-3-((2′-(trans-4-aminocyclohexylamino)-5′-chloro-2,4′-bipyridin-6-yl-amino)methyl)piperidin-1-yl)ethanone] | 65.5
Fc1cccc(CNc2cccc(-c3cc(NC4CCC(F)(F)CC4)ncc3Cl)n2)c1 [Compound 149] | 516
Fc1cc(F)cc(CNc2cccc(-c3cc(NC4CCNCC4)ncc3Cl)n2)c1 [Compound 71] | 27.4
O[C@H]1CC[C@@H](Nc2cc(-c3cccc(NCc4cccc(F)c4)n3)c(Cl)cn2)CC1 [Compound 182] | 21.1
O=C(NC[C@H]1CC[C@H](Nc2cc(-c3cccc(NCc4cccc(F)c4)n3)c(Cl)cn2)CC1)c1cccnc1 [Compound 84] | 14.1
CNc1cc(-c2cccc(NCc3cccc(F)c3)n2)c(Cl)cn1 [Compound 178, 5′-chloro-N6-(3-fluorobenzyl)-N2′-methyl-2,4′-bipyridine-2′,6-diamine] | 103
Fc1cccc(CNc2cccc(-c3cc(NCCN4CCOCC4)ncc3Cl)n2)c1 [Compound 171] | 218
COCCN[C@H]1CC[C@H](Nc2cc(-c3ccc(F)c(NCC4(C#N)CCOCC4)n3)c(Cl)cn2)CC1 [Compound 339] | 0.17
N[C@H]1CC[C@H](Nc2cc(-c3cccc(NCc4cccc(F)c4)n3)ccn2)CC1 [Compound 32] | 15
O=S1(=O)CCC(N[C@H]2CC[C@H](Nc3cc(-c4ccc(F)c(NCC5CCOCC5)n4)c(Cl)cn3)CC2)C1 (stereo partly drawn) [Compound 322] | 3

Further lines, results first:

IC50 [nM] | Compound
205 | Fc1cccc(CNc2cccc(-c3cc(NC4CCCCC4)ncc3Cl)n2)c1 [Compound 141]
7.94 | N[C@@H]1CC[C@@H](Nc2cc(-c3cccc(NCc4cccc(F)c4)n3)c(Cl)cn2)C1 [Compound 191, N2′-((1R,3R)-3-aminocyclopentyl)-5′-chloro-N6-(3-fluorobenzyl)-2,4′-bipyridine-2′,6-diamine]
54.6 | N[C@H]1CC[C@H](Nc2cc(-c3cccc(N[C@@H]4CC45CCOCC5)n3)c(Cl)cn2)CC1 [Compound 212]
138 | CC(=O)N1CCC[C@H](CNc2cccc(-c3ccnc(N[C@H]4CC[C@H](N)CC4)c3)n2)C1 [Compound 216, 1-((R)-3-((2′-(trans-4-aminocyclohexylamino)-2,4′-bipyridin-6-yl-amino)methyl)piperidin-1-yl)ethanone]
35.2 | Clc1cccc(CNc2cccc(-c3cc(NC4CCNCC4)ncc3Cl)n2)c1 [Compound 73]
11 | CCN[C@H]1CC[C@H](Nc2cc(-c3cccc(NCc4cccc(F)c4)n3)c(Cl)cn2)CC1 [Compound 88]
7.95 | CN(Cc1cccc(F)c1)c1cccc(-c2cc(N[C@H]3CC[C@H](N)CC3)ncc2Cl)n1 [Compound 77]
48.3 | N[C@H]1CC[C@H](Nc2ncc(Cl)c(-c3cccc(NCc4cccc(F)c4)n3)n2)CC1 [Compound 34]
7.95 | CCS(=O)(=O)NC[C@H]1CC[C@H](Nc2cc(-c3cccc(NCc4cccc(F)c4)n3)c(Cl)cn2)CC1 [Compound 79]
7.94 | O[C@H]1CC[C@H](Nc2cc(-c3cncc(NC[C@@H]4CCCOC4)n3)c(Cl)cn2)CC1 [Compound 264]

From patent US8778951B2, “Heteroaryl compounds and their uses” (Novartis AG, priority 2009, dated 2014)
